{"source": "patent US11999752B2", "about": "“Vinyl imidazole compounds as inhibitors of KRAS” (Incyte Corporation, priority 2020, dated 2024)", "key": {"[1]": {"target": "KRAS G12C (Homo sapiens, UniProt P01116, G12C)", "assay": "GDP-GTP exchange assay (fluorescence based guanine nucleotide exchange, bodipy-GDP for GppNHp, SOS1)", "type": "biochemical", "settings": "bodipy-loaded KRAS G12C 2.5 nM, GppNHp 500 uM, SOS1 150 nM; 2 hours pre-incubation with inhibitor; read-out: G12C_exchange IC50", "experimental": "Example A. GDP-GTP Exchange Assay.\nThe inhibitor potency of the exemplified compounds was determined in a fluorescence based guanine nucleotide exchange assay, which measures the exchange of bodipy-GDP (fluorescently labeled GDP) for GppNHp (Non-hydrolyzable GTP analog) to generate the active state of KRAS in the presence of SOS1 (guanine nucleotide exchange factor). Inhibitors were serially diluted in DMSO and a volume of 0.1 μL was transferred to the wells of a black low volume 384-well plate. 5 μL/well volume of bodipy-loaded KRAS G12C diluted to 5 nM in assay buffer (25 mM Hepes pH 7.5, 50 mM NaCl, 10 mM MgCl2 and 0.01% Brij-35) was added to the plate and pre-incubated with inhibitor for 2 hours at ambient temperature. Appropriate controls (enzyme with no inhibitor or with a G12C inhibitor (AMG -510)) were included on the plate. The exchange was initiated by the addition of a 5 μL/well volume containing 1 mM GppNHp and 300 nM SOS1 in assay buffer. The 10 μL/well reaction concentration of the bodipy-loaded KRAS G12C, GppNHp, and SOS1 were 2.5 nM, 500 uM, and 150 nM, respectively. The reaction plates were incubated at ambient temperature for 2 hours, a time estimated for complete GDP-GTP exchange in the absence of inhibitor. For the KRAS G12D and G12V mutants, similar guanine nucleotide exchange assays were used with 2.5nM as final concentration for the bodipy loaded KRAS proteins and with 4 hours and 3 hours incubation after adding GppNHp-SOS1 mixture for G12D and G12V respectively. A cyclic peptide described to selectively bind G12D mutant (Sakamoto et al., BBRC 484.3 (2017), 605-611) or internal compounds with confirmed binding were used as positive controls in the assay plates. Fluorescence intensities were measured on a PheraStar plate reader instrument (BMG Labtech) with excitation at 485 nm and emission at 520 nm.\nEither GraphPad prism or XLfit was used to analyze the data. The IC50 values were derived by fitting the data to a four parameter logistic equation producing a sigmoidal dose -response curve with a variable Hill coefficient. Y=Bottom+(Top−Bottom)/(1+10^((LogIC50−X)*Hill slope)); XLfit equation: Y=(A+((B−A)/(1+((X/C)^D)))) where X is the logarithm of inhibitor concentration and Y is the response. Prism equation: […]"}, "[2]": {"system": "MIA PaCa-2 (KRAS G12C) cells", "assay": "Cellular pERK HTRF assay", "type": "cell-based, human", "settings": "KRAS_G12C pERK assay, cells incubated with compounds 4 hours, read-out: G12C_pERK IC50", "experimental": "Example C: Cellular pERK HTRF Assay\nMIA PaCa-2 (KRAS G12C; ATCC® CRL-1420), A427 (KRAS G12D; ATCC® HTB53), HPAF-II (KRAS G12D; ATCC® CRL-1997) and NCI-H838 (KRAS WT; ATCC® CRL-5844) cells are purchased from ATCC and maintained in RPMI 1640 media supplemented with 10% FBS (Gibco/Life Technologies). The cells are plated at 5000 cells per well (8 uL) into Greiner 384-well low volume, flat-bottom, tissue culture treated white plates and incubated overnight at 37° C., 5% CO2. The next morning, test compound stock solutions are diluted in media at 3× the final concentration, and 4 uL are added to the cells. The plate is mixed by gentle rotation for 30 seconds (250rpm) at room temperature. The cells are incubated with the KRAS G12C and G12D compounds for 4 hours or 2 hours respectively at 37° C., 5% CO2.\n4 uL of 4× lysis buffer with blocking reagent (1:25) (Cisbio) are added to each well and plates are rotated gently (300 rpm) for 30 minutes at room temperature. 4 uL per well of Cisbio anti Phospho-ERK 1/2 d2 is mixed with anti Phospho-ERK 1/2 Cryl)tate (1:1) are added to each well, mixed by rotation and incubated overnight in the dark at room temperature. Plates are read on the Pherastar plate reader at 665 nm and 620 nm wavelengths. IC50 determination is performed by fitting the curve of inhibitor percent inhibition versus the log of the inhibitor concentration using the GraphPad Prism 7 software."}}, "note": "Where two headings read alike, the source gives them in different places.", "data": [{"molecule": "4-(1-cyclopropyl-3-vinyl-5,6-dihydroimidazo[1,5-a]pyrazin-7(8H)-yl)-7-(2-fluoro-6-hydroxyl)henyl)-1-(2-isopropyl-4-methylpyridin-3-yl)quinazolin-2(1H)-one [Example 8]", "values": [{"measurement": "IC50", "setting": "[1]", "value": "100 to 1000", "unit": "nM"}]}, {"molecule": "C=Cc1ncc2n1CCN(c1nc(OCC3CCCN3C)nc3c(F)c(-c4cc(O)cc5ccccc45)c(Cl)cc13)C2", "note": "(racemic) [Example 11, 4-(6-chloro-8-fluoro-2-((1-methylpyrrolidin-2-yl)methoxy)-4-(3-vinyl-5,6-dihydroimidazo[1,5-a]pyrazin-7(8H)-yl)quinazolin-7-yl)naphthalen-2-ol]", "values": [{"measurement": "IC50", "setting": "[2]; Homo sapiens, MIA PaCa-2", "value": "1000 to 5000", "unit": "nM"}, {"measurement": "IC50", "setting": "[1]", "value": "≤ 100", "unit": "nM"}]}, {"molecule": "C=Cc1ncc2n1CCN(c1nc(OCC3CCCN3C)nc3c(F)c(-c4c(O)cccc4F)c(Cl)cc13)C2", "note": "(racemic) [Example 12, 2-(6-chloro-8-fluoro-2-((1-methylpyrrolidin-2-yl)methoxy)-4-(3-vinyl-5,6-dihydroimidazo[1,5-a]pyrazin-7(8H)-yl)quinazolin-7-yl)-3-fluorophenol]", "values": [{"measurement": "IC50", "setting": "[2]; Homo sapiens, MIA PaCa-2", "value": "5000 to 10000", "unit": "nM"}, {"measurement": "IC50", "setting": "[1]", "value": "100 to 1000", "unit": "nM"}]}, {"molecule": "C=Cc1ncc2n1CCN(c1nc(OCC3CCCN3C)nc3c(F)c(-c4c(C)ccc5[nH]ncc45)c(Cl)cc13)C2", "note": "(racemic) [Example 13, 6-chloro-8-fluoro-7-(5-methyl-1H-indazol-4-yl)-2-((1-methylpyrrolidin-2-yl)methoxy)-4-(3-vinyl-5,6-dihydroimidazo[1,5-a]pyrazin-7(8H)-yl)quinazoline]", "values": [{"measurement": "IC50", "setting": "[2]; Homo sapiens, MIA PaCa-2", "value": "5000 to 10000", "unit": "nM"}, {"measurement": "IC50", "setting": "[1]", "value": "100 to 1000", "unit": "nM"}]}, {"molecule": "C=Cc1ncc2n1CCN(c1nc(OC3CCCN(C)C3)nc3c(F)c(-c4cc(O)cc5ccccc45)c(Cl)cc13)C2", "note": "(racemic) [Example 18, 4-(6-chloro-8-fluoro-2-((1-methylpiperidin-3-yl)oxy)-4-(3-vinyl-5,6-dihydro-imidazo[1,5-a]pyrazin-7(8H)-yl)quinazolin-7-yl)naphthalen-2-ol]", "values": [{"measurement": "IC50", "setting": "[2]; Homo sapiens, MIA PaCa-2", "value": "5000 to 10000", "unit": "nM"}, {"measurement": "IC50", "setting": "[1]", "value": "100 to 1000", "unit": "nM"}]}, {"molecule": "C=Cc1ncc2n1CCN(c1nc(=O)n(-c3c(C)ccnc3C(C)C)c3nc(-c4c(O)cccc4F)c(F)cc13)C2", "note": "(single isomer, unassigned) [Example 1]", "values": [{"measurement": "IC50", "setting": "[2]; Homo sapiens, MIA PaCa-2", "value": "5000 to 10000", "unit": "nM"}, {"measurement": "IC50", "setting": "[1]", "value": "100 to 1000", "unit": "nM"}]}, {"molecule": "C=Cc1ncc2n1CCN(c1nc(=O)n(-c3c(C)ccnc3C(C)C)c3nc(-c4c(O)cccc4F)c(F)cc13)C2", "note": "(single isomer, unassigned) [Example 2]", "values": [{"measurement": "IC50", "setting": "[2]", "value": "5000 to 10000", "unit": "nM"}, {"measurement": "IC50", "setting": "[1]", "value": "100 to 1000", "unit": "nM"}]}, {"molecule": "C=Cc1ncc2n1CCN(c1nc(=O)n(CC3CC3)c3nc(-c4c(O)cccc4F)c(F)cc13)C2", "note": "[Example 3]", "values": [{"measurement": "IC50", "setting": "[2]; Homo sapiens, MIA PaCa-2", "value": "5000 to 10000", "unit": "nM"}, {"measurement": "IC50", "setting": "[1]", "value": "100 to 1000", "unit": "nM"}]}, {"molecule": "C=Cc1ncc2n1CCN(c1nc(=O)n(C(C)C)c3nc(-c4c(O)cccc4F)c(F)cc13)C2", "note": "[Example 4]", "values": [{"measurement": "IC50", "setting": "[2]; Homo sapiens, MIA PaCa-2", "value": "5000 to 10000", "unit": "nM"}, {"measurement": "IC50", "setting": "[1]", "value": "100 to 1000", "unit": "nM"}]}, {"molecule": "C=Cc1ncc2n1CCN(c1nc(=O)n(CCOC)c3nc(-c4c(O)cccc4F)c(F)cc13)C2", "note": "[Example 5]", "values": [{"measurement": "IC50", "setting": "[1]", "value": "1000 to 5000", "unit": "nM"}]}, {"molecule": "Cc1ccnc(C(C)C)c1-n1c(=O)nc(N2CCn3c(cnc3/C=C/c3cc(F)cc(F)c3)C2)c2cc(F)c(-c3c(O)cccc3F)nc21", "note": "[Example 6]", "values": [{"measurement": "IC50", "setting": "[1]", "value": "1000 to 5000", "unit": "nM"}]}, {"molecule": "Cc1ccnc(C(C)C)c1-n1c(=O)nc(N2CCn3c(cnc3/C=C/c3ccc(F)cc3F)C2)c2cc(F)c(-c3c(O)cccc3F)nc21", "note": "[Example 7]", "values": [{"measurement": "IC50", "setting": "[1]", "value": "1000 to 5000", "unit": "nM"}]}, {"molecule": "C=Cc1nc(CN2CC(C(F)(F)F)C2)c2n1CCN(c1nc(=O)n(-c3c(C)ccnc3C(C)C)c3nc(-c4c(O)cccc4F)c(F)cc13)C2", "note": "[Example 9]", "values": [{"measurement": "IC50", "setting": "[1]", "value": "1000 to 5000", "unit": "nM"}]}, {"molecule": "C=Cc1nc(CN(C)CC#N)c2n1CCN(c1nc(=O)n(-c3c(C)ccnc3C(C)C)c3nc(-c4c(O)cccc4F)c(F)cc13)C2", "note": "[Example 10]", "values": [{"measurement": "IC50", "setting": "[1]", "value": "1000 to 5000", "unit": "nM"}]}, {"molecule": "C=Cc1ncc2n1CCN(c1nc(OCCN(C)C)nc3c(F)c(-c4cc(O)cc5ccccc45)c(Cl)cc13)C2", "note": "[Example 14, 4-(6-chloro-2-(2-(dimethylamino)ethoxy)-8-fluoro-4-(3-vinyl-5,6-dihydroimidazo[1,5-a]pyrazin-7(8H)-yl)quinazolin-7-yl)naphthalen-2-ol]", "values": [{"measurement": "IC50", "setting": "[2]; Homo sapiens, MIA PaCa-2", "value": "1000 to 5000", "unit": "nM"}, {"measurement": "IC50", "setting": "[1]", "value": "100 to 1000", "unit": "nM"}]}, {"molecule": "C=Cc1ncc2n1CCN(c1nc(OC3CCN(C)CC3)nc3c(F)c(-c4cc(O)cc5ccccc45)c(Cl)cc13)C2", "note": "[Example 15, 4-(6-chloro-8-fluoro-2-((1-methylpiperidin-4-yl)oxy)-4-(3-vinyl-5,6-dihydroimidazo[1,5-a]pyrazin-7(8H)-yl)quinazolin-7-yl)naphthalen-2-ol]", "values": [{"measurement": "IC50", "setting": "[2]; Homo sapiens, MIA PaCa-2", "value": "5000 to 10000", "unit": "nM"}, {"measurement": "IC50", "setting": "[1]", "value": "100 to 1000", "unit": "nM"}]}, {"molecule": "C=Cc1ncc2n1CCN(c1nc(OCCN3CCOCC3)nc3c(F)c(-c4cc(O)cc5ccccc45)c(Cl)cc13)C2", "note": "[Example 16, 4-(6-chloro-8-fluoro-2-(2-morpholinoethoxy)-4-(3-vinyl-5,6-dihydroimidazo-[1,5-a]pyrazin-7(8H)-yl)quinazolin-7-yl)naphthalen-2-ol]", "values": [{"measurement": "IC50", "setting": "[2]; Homo sapiens, MIA PaCa-2", "value": "5000 to 10000", "unit": "nM"}, {"measurement": "IC50", "setting": "[1]", "value": "100 to 1000", "unit": "nM"}]}, {"molecule": "C=Cc1ncc2n1CCN(c1nc(OC[C@@H]3CCCN3C)nc3c(F)c(-c4cc(O)cc5ccccc45)c(Cl)cc13)C2", "note": "[Example 17, 4-(6-chloro-8-fluoro-2-(((S)-1-methylpyrrolidin-2-yl)methoxy)-4-(3-vinyl-5,6-dihydroimidazo[1,5-a]pyrazin-7(8H)-yl)quinazolin-7-yl)naphthalen-2-ol]", "values": [{"measurement": "IC50", "setting": "[2]; Homo sapiens, MIA PaCa-2", "value": "1000 to 5000", "unit": "nM"}, {"measurement": "IC50", "setting": "[1]", "value": "100 to 1000", "unit": "nM"}]}, {"molecule": "C=Cc1ncc2n1CCN(c1nc(N3CC(N(C)C)C3)nc3c(F)c(-c4cc(O)cc5ccccc45)c(Cl)cc13)C2", "note": "[Example 19, 4-(6-chloro-2-(3-(dimethylamino)azetidin-1-yl)-8-fluoro-4-(3-vinyl-5,6-dihydroimidazo[1,5-a]pyrazin-7(8H)-yl)quinazolin-7-yl)naphthalen-2-ol]", "values": [{"measurement": "IC50", "setting": "[2]; Homo sapiens, MIA PaCa-2", "value": "1000 to 5000", "unit": "nM"}, {"measurement": "IC50", "setting": "[1]", "value": "100 to 1000", "unit": "nM"}]}]}
